Measured values from PubChem BioAssay AID248 (DTP/NCI, 2004).
Where “and” joins values, the source holds several entries; their conditions need not be identical. Equal entries are not always repeated. Toxic doses and inconclusive results are not listed.

System: L1210 leukemia ip in BDF1 mice, survival T/C
Experiment: NCI In Vivo Anticancer Drug Screen. Data for tumor model L1210 Leukemia (intraperitoneal) in B6D2F1 (BDF1) mice
Conditions: endpoint: mean survival time, higher = longer survival
Method in brief: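 Value reflects the ratio of survival in compound-treated mice to survival in vehicle-treated controls, with both groups carrying the same transplanted tumor.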

[1] = dose: 25.0 mg/kg/injection, schedule: Q01DX009 (ip), vehicle: saline
[2] = dose: 50.0 mg/kg/injection, schedule: Q01DX009 (ip), vehicle: saline
[3] = dose: 100.0 mg/kg/injection, schedule: Q04DX003 (ip), vehicle: saline
[4] = dose: 200.0 mg/kg/injection, schedule: Q04DX003 (ip), vehicle: saline
[5] = dose: 100.0 mg/kg/injection, schedule: Q01DX009 (ip), vehicle: saline
[6] = dose: 200.0 mg/kg/injection, schedule: Q01DX009 (ip), vehicle: saline
[7] = dose: 100.0 mg/kg/injection, schedule: Q04DX003 (ip), vehicle: saline with Tween-80
[8] = dose: 200.0 mg/kg/injection, schedule: Q04DX003 (ip), vehicle: saline with Tween-80
[9] = dose: 400.0 mg/kg/injection, schedule: Q04DX003 (ip), vehicle: saline with Tween-80
[10] = dose: 100.0 mg/kg/injection, schedule: Q01DX001 (ip), vehicle: Klucel (hydroxypropylcellulose) (HPC)
[11] = dose: 100.0 mg/kg/injection, schedule: Q01DX009 (ip), vehicle: Klucel (hydroxypropylcellulose) (HPC)
[12] = dose: 200.0 mg/kg/injection, schedule: Q01DX001 (ip), vehicle: Klucel (hydroxypropylcellulose) (HPC)
[13] = dose: 200.0 mg/kg/injection, schedule: Q01DX009 (ip), vehicle: Klucel (hydroxypropylcellulose) (HPC)
[14] = dose: 400.0 mg/kg/injection, schedule: Q01DX001 (ip), vehicle: Klucel (hydroxypropylcellulose) (HPC)
[15] = dose: 400.0 mg/kg/injection, schedule: Q01DX009 (ip), vehicle: Klucel (hydroxypropylcellulose) (HPC)
[16] = dose: 50.0 mg/kg/injection, schedule: Q01DX001 (ip), vehicle: saline
[17] = dose: 100.0 mg/kg/injection, schedule: Q01DX001 (ip), vehicle: saline
[18] = dose: 200.0 mg/kg/injection, schedule: Q01DX001 (ip), vehicle: saline
[19] = dose: 400.0 mg/kg/injection, schedule: Q01DX009 (ip), vehicle: saline
[20] = dose: 100.0 mg/kg/injection, schedule: Q04DX003 (ip), vehicle: Klucel (hydroxypropylcellulose) (HPC)
[21] = dose: 200.0 mg/kg/injection, schedule: Q04DX003 (ip), vehicle: Klucel (hydroxypropylcellulose) (HPC)
[22] = dose: 400.0 mg/kg/injection, schedule: Q04DX003 (ip), vehicle: Klucel (hydroxypropylcellulose) (HPC)

With CN(C)C(C)(C)CNc1ccc(C(=O)O)cc1 the T/C (dose: 6.0 mg/kg/injection, schedule: Q01DX009 (ip), vehicle: saline) was 96 % of control, the T/C (dose: 12.0 mg/kg/injection, schedule: Q01DX009 (ip), vehicle: saline) was 97 % of control and the T/C [1] was 100 % of control and 98 % of control. The T/C [2] was 109 % of control, the T/C [3] was 98 % of control and the T/C [4] was 101 % of control.
With N#Cc1ncn(C2OC(CO)C(O)C2O)c1N (configuration not stated) the T/C (dose: 100.0 mg/kg/injection, schedule: Q01DX005 (ip), vehicle: saline) was 103 % of control and the T/C (dose: 200.0 mg/kg/injection, schedule: Q01DX005 (ip), vehicle: saline) was 96 % of control.
In the case of Cc1c(-c2ccccc2)cc(O)cc1-c1ccccc1, the T/C [1] is reported as 98 % of control, the T/C [2] is reported as 98 % of control and the T/C [5] is reported as 105 % of control. The T/C [6] was 100 % of control.
For Cc1cc(C)c(S(=O)(=O)CC(Cl)c2ccccc2)c(C)c1 (configuration not stated), the T/C (dose: 100.0 mg/kg/injection, schedule: Q01DX001 (ip), vehicle: acetone) was 95 % of control, the T/C (dose: 100.0 mg/kg/injection, schedule: Q04DX003 (ip), vehicle: acetone) was 103 % of control and the T/C (dose: 200.0 mg/kg/injection, schedule: Q01DX001 (ip), vehicle: acetone) was 97 % of control. The T/C (dose: 200.0 mg/kg/injection, schedule: Q04DX003 (ip), vehicle: acetone) was 97 % of control, the T/C (dose: 400.0 mg/kg/injection, schedule: Q01DX001 (ip), vehicle: acetone) was 93 % of control and the T/C (dose: 400.0 mg/kg/injection, schedule: Q04DX003 (ip), vehicle: acetone) was 97 % of control.
With O=C1OC(c2ccccc2)C=C1Nc1ccccc1 (configuration not stated) the T/C [7] was 95 % of control, the T/C [8] was 95 % of control and the T/C [9] was 91 % of control.
For O=C(Nc1ccccc1Cl)c1cccnc1, the T/C (dose: 100.0 mg/kg/injection, schedule: Q04DX003 (ip), vehicle: other) was 96 % of control, the T/C (dose: 200.0 mg/kg/injection, schedule: Q04DX003 (ip), vehicle: other) was 97 % of control and the T/C (dose: 400.0 mg/kg/injection, schedule: Q04DX003 (ip), vehicle: other) was 94 % of control.
With CCCc1c(N)nc(N)nc1C(=O)O the T/C [10] was 94 % of control, the T/C [11] was 100 % of control and the T/C [12] was 94 % of control. For the same compound, the T/C [13] was 109 % of control, the T/C [14] was 92 % of control and the T/C [15] was 86 % of control.
With C[N+](C)(C)CCC[N+]1(C)CCC2(CCCC(C(F)(F)F)C2)CC1 (configuration not stated) the T/C [16] was 98 % of control, the T/C [17] was 104 % of control and the T/C [18] was 96 % of control.
For Oc1c(Br)cc(Br)cc1/C=C/NC(=S)NC1CC2CC1C1C=CCC21 (configuration not stated), the T/C [11] was 105 % of control, the T/C [13] was 94 % of control and the T/C [15] was 97 % of control.
In the case of C=C(COC(C)(C)C)CN(C)C, the T/C [17] is reported as 94 % of control and the T/C [18] is reported as 93 % of control.
For Cc1csc(C)n1, the T/C (dose: 100.0 mg/kg/injection, schedule: Q01DX009 (ip), vehicle: saline with Tween-80) was 95 % of control, the T/C [7] was 103 % of control and the T/C (dose: 200.0 mg/kg/injection, schedule: Q01DX009 (ip), vehicle: saline with Tween-80) was 95 % of control. The T/C [8] was 107 % of control and the T/C [9] was 107 % of control.
For O=C1OC(=O)c2c(Br)c(Br)c(Br)c(Br)c21, the T/C [5] was 103 % of control, the T/C [6] was 97 % of control and the T/C [19] was 107 % of control.
CP(=O)(Cc1ccccc1)c1ccccc1 (configuration not stated) was tested, and the T/C (dose: 75.0 mg/kg/injection, schedule: Q01DX001 (ip), vehicle: saline) was 101 % of control, the T/C (dose: 150.0 mg/kg/injection, schedule: Q01DX001 (ip), vehicle: saline) was 103 % of control and the T/C (dose: 300.0 mg/kg/injection, schedule: Q01DX001 (ip), vehicle: saline) was 103 % of control.
For CC(C)(C)OC(=O)CC(O)c1ccccc1 (configuration not stated), the T/C [16] was 94 % of control, the T/C [17] was 102 % of control and the T/C [18] was 105 % of control. For the same compound, the T/C (dose: 400.0 mg/kg/injection, schedule: Q01DX001 (ip), vehicle: saline) was 102 % of control.
In the case of CNC1C(O)C2CCC(C2)C1c1ccccc1 (configuration not stated), the T/C (dose: 75.0 mg/kg/injection, schedule: Q01DX001 (ip), vehicle: Klucel (hydroxypropylcellulose) (HPC)) is reported as 96 % of control, the T/C (dose: 150.0 mg/kg/injection, schedule: Q01DX001 (ip), vehicle: Klucel (hydroxypropylcellulose) (HPC)) is reported as 105 % of control and the T/C (dose: 300.0 mg/kg/injection, schedule: Q01DX001 (ip), vehicle: Klucel (hydroxypropylcellulose) (HPC)) is reported as 98 % of control.
In the case of O=C(O)COc1ccc(C2(c3ccc(OCC(=O)O)cc3)CC3CC2C2CCCC32)cc1 (configuration not stated) (tested in a mixture with another compound), the T/C (dose: 100.0 mg/kg/injection, schedule: Q04DX002 (ip), vehicle: saline with Tween-80) is reported as 93 % of control, the T/C (dose: 200.0 mg/kg/injection, schedule: Q04DX002 (ip), vehicle: saline with Tween-80) is reported as 93 % of control and the T/C (dose: 400.0 mg/kg/injection, schedule: Q04DX002 (ip), vehicle: saline with Tween-80) is reported as 106 % of control.
CSC12OCC(O1)C1OC(C)(C)OC(C=O)C1O2 (configuration not stated) was tested, and the T/C (dose: 50.0 mg/kg/injection, schedule: Q04DX002 (ip), vehicle: saline) was 92 % of control and the T/C (dose: 100.0 mg/kg/injection, schedule: Q04DX002 (ip), vehicle: saline) was 95 % of control.
For CCCn1cnc2c(=S)nc[nH]c21, the T/C (dose: 12.5 mg/kg/injection, schedule: Q01DX Z (ip), vehicle: carboxymethylcellulose (CMC)) was 108 % of control, the T/C (dose: 25.0 mg/kg/injection, schedule: Q01DX Z (ip), vehicle: carboxymethylcellulose (CMC)) was 102 % of control and the T/C (dose: 37.5 mg/kg/injection, schedule: Q04DX003 (ip), vehicle: Klucel (hydroxypropylcellulose) (HPC)) was 97 % of control. For the same compound, the T/C (dose: 50.0 mg/kg/injection, schedule: Q01DX Z (ip), vehicle: carboxymethylcellulose (CMC)) was 104 % of control, the T/C (dose: 75.0 mg/kg/injection, schedule: Q04DX003 (ip), vehicle: Klucel (hydroxypropylcellulose) (HPC)) was 103 % of control and the T/C (dose: 150.0 mg/kg/injection, schedule: Q04DX003 (ip), vehicle: Klucel (hydroxypropylcellulose) (HPC)) was 123 % of control. For the same compound, the T/C (dose: 300.0 mg/kg/injection, schedule: Q04DX003 (ip), vehicle: Klucel (hydroxypropylcellulose) (HPC)) was 151 % of control.
For COc1ccc(C(O)C(C)C(O)(C(F)(F)F)C(F)(F)F)cc1 (configuration not stated), the T/C [10] was 98 % of control, the T/C [20] was 96 % of control and the T/C [12] was 101 % of control. The T/C [21] was 98 % of control, the T/C [14] was 111 % of control and the T/C [22] was 93 % of control.
For Cc1cccc(C)[n+]1CC(=O)CCCCCCC(=O)C[n+]1c(C)cccc1C, the T/C (dose: 0.25 mg/kg/injection, schedule: Q04DX003 (ip), vehicle: saline) was 98 % of control, the T/C (dose: 0.5 mg/kg/injection, schedule: Q04DX003 (ip), vehicle: saline) was 105 % of control and the T/C (dose: 1.0 mg/kg/injection, schedule: Q04DX003 (ip), vehicle: saline) was 101 % of control.
With CCCCC(CC)(CCC)CCN (configuration not stated) the T/C (dose: 5.0 mg/kg/injection, schedule: Q01DX001 (ip), vehicle: carboxymethylcellulose (CMC)) was 100 % of control, the T/C (dose: 10.0 mg/kg/injection, schedule: Q01DX001 (ip), vehicle: carboxymethylcellulose (CMC)) was 110 % of control and the T/C (dose: 20.0 mg/kg/injection, schedule: Q01DX001 (ip), vehicle: carboxymethylcellulose (CMC)) was 100 % of control.
With NC(=O)CCCN1CCCC1=O the T/C [5] was 100 % of control, the T/C [3] was 100 % of control and the T/C [6] was 111 % of control. For the same compound, the T/C [4] was 101 % of control, the T/C [19] was 110 % of control and the T/C (dose: 400.0 mg/kg/injection, schedule: Q04DX003 (ip), vehicle: saline) was 97 % of control.
For CC(Cc1ccccc1)Nc1ccccn1 (configuration not stated), the T/C (dose: 75.0 mg/kg/injection, schedule: Q01DX001 (ip), vehicle: other) was 97 % of control, the T/C (dose: 150.0 mg/kg/injection, schedule: Q01DX001 (ip), vehicle: other) was 97 % of control and the T/C (dose: 300.0 mg/kg/injection, schedule: Q01DX001 (ip), vehicle: other) was 95 % of control.
COc1cc2c(cc1OC)-c1ncnc(-c3ccccc3)c1C2 was tested, and the T/C [20] was 95 % of control, the T/C [21] was 94 % of control and the T/C [22] was 101 % of control.
